In patent publication US8546608B2, “Proteasome inhibitors and methods of using the same” (Cephalon, Inc., priority 2003, dated 2013):

What follows are compounds tested against T1, proteasome in Molt-4 cells (human leukemia) (Homo sapiens, UniProt P20618+P28074) (assay: not given). Conditions: assay of Example E, inhibition of MOLT4; read-out: MOLT4 (EC50).
T1 sequence (P28074 60-263): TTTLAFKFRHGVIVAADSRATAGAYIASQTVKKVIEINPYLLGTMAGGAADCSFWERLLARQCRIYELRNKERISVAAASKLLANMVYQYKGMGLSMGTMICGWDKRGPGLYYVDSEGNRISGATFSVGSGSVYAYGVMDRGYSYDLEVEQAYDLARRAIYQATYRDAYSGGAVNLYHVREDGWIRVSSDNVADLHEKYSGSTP
T1 sequence (P20618 29-241): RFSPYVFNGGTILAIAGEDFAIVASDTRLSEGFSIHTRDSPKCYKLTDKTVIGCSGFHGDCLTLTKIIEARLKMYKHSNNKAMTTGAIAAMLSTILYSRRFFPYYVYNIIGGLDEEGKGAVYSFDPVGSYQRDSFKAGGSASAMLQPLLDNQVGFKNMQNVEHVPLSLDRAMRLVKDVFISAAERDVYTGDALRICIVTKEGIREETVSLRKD
Type: cell-based
Method: Cellular Assay for Chymotrypsin-like activity of Proteasome in Molt-4 Cell Line
The chymotrypsin-like activity of proteasome in Molt-4 cells (human leukemia) was assayed according to the following procedure. A brief description of the method was published previously (Harding et al., J. Immunol., 1995, 155, 1767).
Molt-4 cells were washed and resuspended in HEPES-buffered Saline (5.4 mM KCl, 120 mM NaCl, 25 mM Glucose, 1.5 mM MgSO4, 1 mM Na pyruvate, 20 mM Hepes) and plated in 96-well microtiter white plates to a final concentration of 6×10^6 cells/mL. Then various 5× proteasome inhibitor concentrations (or diluted DMSO for controls), prepared from 250×DMSO solutions by diluting 50-fold using HEPES-buffered saline, were added to the plate to a final 1× concentration. After 15 minutes incubation at 37° C., a fluorimetric cell permeable substrate (MeOSuc-FLF-AFC) (methoxysuccinyl-Phe-Leu-Phe-7-amido-4-trifluoromethylcoumarin) purchased from Enzyme Systems Products, catalogue number AFC-88, was added to each well at a final concentration of 25 μM from a stock solution of 20 mM in DMSO. Reaction volumes were 100 μl per well.
The concentration of free AFC was monitored every 1.5 min for 30 min ([…]) on a Polastar Optima, BMG Labtechnologies microplate reader, using an excitation wavelength of 390 nm and emission wavelength of 520 nm. Proteasome activity was determined under conditions in which substrate hydrolysis increased linearly with time and the change in fluorescent signal was proportional to the concentration of free AFC.
Determination of EC50 Values for Proteasome Inhibitors in MOLT-4 Cell Line
Inhibition of chymotrypsin-like activity of proteasome in Molt-4 cells was determined by incubating cells with various concentrations of putative inhibitors for 15 minutes at 37° C. prior to the addition of substrate. Each experimental condition was evaluated in triplicate, and replicate experiments were performed for the inhibitors described herein.

| EC50 | Structure (SMILES) |
| --- | --- |
| 200 to 2000 nM | CC(C)C[C@H](NC(=O)[C@H](CCCNC(=N)N[N+](=O)[O-])NC(=O)CC1C=CCC1)B1O[C@@H]2C[C@@H]3C[C@@H](C3(C)C)[C@]2(C)O1 (mixture of isomers) [D.3.59] |

Each compound was assayed against T2, 20S Human Erythrocyte Proteasome (HEP) (Homo sapiens, UniProt P20618+P28074) (assay: Chymotrypsin-like activity of 20S Human Erythrocyte Proteasome (HEP), IC50 determination). Conditions: assay of Example C, inhibition of HEP.
T2 construct: 20S Human Erythrocyte Proteasome (HEP), purchased from Immatics Biotechnologies Inc; purchased Immatics Biotechnologies Inc., Tübingen, Germany; host or cells: human erythrocytes (natural source)
Type: biochemical
Method: Assay for Chymotrypsin-like Activity of 20S Human Erythrocyte Proteasome (HEP)
Proteasome chymotrypsin-like activity of compounds of the invention was assayed according to the following procedure.
In 96-well microtiter plates, 20S Human Erythrocyte Proteasome (HEP), purchased from Immatics Biotechnologies Inc., Tübingen, Germany was plated at 0.2 μg/mL (about 0.6 nM catalytic sites) in 0.04% SDS 20 mM Tris buffer. A fluorimetric substrate Suc-LLVY-AMC (succinyl-Leu-Leu-Val-Tyr-7-amido-4-methylcoumarin), purchased from Sigma Inc., St. Louis, Mo., USA was added to a final concentration of 100 μM from a stock solution of 10 mM in dimethylsulfoxide. Reaction volumes were 100 μl per well. […] Proteasome activity was determined under conditions in which substrate hydrolysis increased linearly with time and the change in fluorescence signal was proportional to the concentration of free AMC.
Determination of IC50 Values for HEP and α-Chymotrypsin Inhibitors
Inhibition of the chymotrypsin-like activity of HEP and of bovine α-chymotrypsin was determined by incubating the enzyme with various concentrations of putative inhibitors for 15 minutes at 37° C. (or room temperature for α-chymotrypsin) prior to the addition of substrate. Each experimental condition was evaluated in triplicate, and replicate experiments were performed for the inhibitors described herein.

| Structure (SMILES) | IC50 |
| --- | --- |
| CCCCC(CC)CCC(=O)N[C@@H](CCCNC(=N)N[N+](=O)[O-])C(=O)N[C@@H](CC(C)C)B1O[C@@H]2C[C@@H]3C[C@@H](C3(C)C)[C@]2(C)O1 (mixture of isomers) [D.3.78, (RS)-4-Ethyloctanamide,N-[(1S)-1-[[[(1R)-1-[(3aS,4S,6S,7aR)-hexahydro-3a,5,5-trimethyl-4,6-methano-1,3,2-benzodioxaborol-2-yl]-3-methylbutyl]amino]carbonyl]-4-[[imino(nitroamino)methyl]amino]butyl]] | < 10 nM |
| CCCCC(C)CCC(=O)N[C@@H](CCCNC(=N)N[N+](=O)[O-])C(=O)N[C@@H](CC(C)C)B1O[C@@H]2C[C@@H]3C[C@@H](C3(C)C)[C@]2(C)O1 (mixture of isomers) [D.3.87, (RS)-4-Methyloctanamide,N-[(1S)-1-[[[(1R)-1-[(3aS,4S,6S,7aR)-hexahydro-3a,5,5-trimethyl-4,6-methano-1,3,2-benzodioxaborol-2-yl]-3-methylbutyl]amino]carbonyl]-4-[[imino(nitroamino)methyl]amino]butyl]] | < 10 nM |
| CCCCCCCC/C=C/C(=O)N[C@@H](CCCNC(=N)N[N+](=O)[O-])C(=O)N[C@@H](CC(C)C)B1O[C@@H]2C[C@@H]3C[C@@H](C3(C)C)[C@]2(C)O1 [D.3.69, (E)-Undec-2-enoic acid amide,N-[(1S)-1-[[[(1R)-1-[(3aS,4S,6S,7aR)-hexahydro-3a,5,5-trimethyl-4,6-methano-1,3,2-benzodioxaborol-2-yl]-3-methylbutyl]amino]carbonyl]-4-[[imino(nitroamino)methyl]amino]butyl]] | < 10 nM |
| Cc1ccc(CSCCC(=O)N[C@@H](CCCNC(=N)N[N+](=O)[O-])C(=O)N[C@@H](CC(C)C)B2O[C@@H]3C[C@@H]4C[C@@H](C4(C)C)[C@]3(C)O2)cc1 [D.3.76, 3-[(4-methylbenzyl)sulfanyl]propanamide,N-[(1S)-1-[[[(1R)-1-[(3aS,4S,6S,7aR)-hexahydro-3a,5,5-trimethyl-4,6-methano-1,3,2-benzodioxaborol-2-yl]-3-methylbutyl]amino]carbonyl]-4-[[imino(nitroamino)methyl]amino]butyl]] | < 10 nM |
| CC(C)=CCC[C@H](C)CC(=O)N[C@@H](CCCNC(=N)N[N+](=O)[O-])C(=O)N[C@@H](CC(C)C)B1O[C@@H]2C[C@@H]3C[C@@H](C3(C)C)[C@]2(C)O1 [D.3.77, (3S)-3,7-Dimethyl-oct-6-enoic acid amide,N-[(1S)-1-[[[(1R)-1-[(3aS,4S,6S,7aR)-hexahydro-3a,5,5-trimethyl-4,6-methano-1,3,2-benzodioxaborol-2-yl]-3-methylbutyl]amino]carbonyl]-4-[[imino(nitroamino)methyl]amino]butyl]] | < 10 nM |
| CC(C)C[C@H](NC(=O)[C@H](CCCNC(=N)N[N+](=O)[O-])NC(=O)COc1ccc(Br)cc1)B1O[C@@H]2C[C@@H]3C[C@@H](C3(C)C)[C@]2(C)O1 [D.3.80, 2-(4-Bromophenoxy)-acetamide,N-[(1S)-1-[[[(1R)-1-[(3aS,4S,6S,7aR)-hexahydro-3a,5,5-trimethyl-4,6-methano-1,3,2-benzodioxaborol-2-yl]-3-methylbutyl]amino]carbonyl]-4-[[imino(nitroamino)methyl]amino]butyl]] | < 10 nM |
| CC(C)C[C@H](NC(=O)[C@H](CCCNC(=N)N[N+](=O)[O-])NC(=O)CCCCc1cccs1)B1O[C@@H]2C[C@@H]3C[C@@H](C3(C)C)[C@]2(C)O1 [D.3.115, 5-Thiophen-2-yl-pentanamide,N-[(1S)-1-[[[(1R)-1-[(3aS,4S,6S,7aR)-hexahydro-3a,5,5-trimethyl-4,6-methano-1,3,2-benzodioxaborol-2-yl]-3-methylbutyl]amino]carbonyl]-4-[[imino(nitroamino)methyl]amino]butyl]] | < 10 nM |
| CCCCCCCc1ccc(C(=O)N[C@@H](CCCNC(=N)N[N+](=O)[O-])C(=O)N[C@@H](CC(C)C)B2O[C@@H]3C[C@@H]4C[C@@H](C4(C)C)[C@]3(C)O2)cc1 [D.3.130, 4-Heptylbenzamide,N-[(1S)-1-[[[(1R)-1-[(3aS,4S,6S,7aR)-hexahydro-3a,5,5-trimethyl-4,6-methano-1,3,2-benzodioxaborol-2-yl]-3-methylbutyl]amino]carbonyl]-4-[[imino(nitroamino)methyl]amino]butyl]] | < 10 nM |
| CCCCCCCCCC(=O)N[C@@H](CCCNC(=N)N[N+](=O)[O-])C(=O)N[C@@H](CC(C)C)B1O[C@H](C2CCCCC2)[C@@H](C2CCCCC2)O1 [F.1, Decanamide, N-[(1S)-1-[[[(1R)-1-[(4R,5R)-4,5-dicyclohexyl-[1,3,2]dioxaborolan-2-yl]-3-methylbutyl]amino]carbonyl]-4-[[imino(nitroamino)methyl]amino]butyl]-] | < 10 nM |

Next, values leading:

| IC50 | Structure (SMILES) |
| --- | --- |
| < 10 nM | CC(C)C[C@H](NC(=O)[C@H](CCCNC(=N)N[N+](=O)[O-])NC(=O)CC1C=CCC1)B1O[C@@H]2C[C@@H]3C[C@@H](C3(C)C)[C@]2(C)O1 (mixture of isomers) [D.3.59] |
| < 100 nM | CC(C)C[C@H](NC(=O)[C@H](CCCNC(=N)N[N+](=O)[O-])NC(=O)CN1CCCCC1)B1O[C@@H]2C[C@@H]3C[C@@H](C3(C)C)[C@]2(C)O1 [D.1.9, 2-Piperidin-1-yl-acetamide,N-[(1S)-1-[[[(1R)-1-[(3aS,4S,6S,7aR)-hexahydro-3a,5,5-trimethyl-4,6-methano-1,3,2-benzodioxaborol-2-yl]-3-methylbutyl]amino]carbonyl]-4-[[imino(nitroamino)methyl]amino]butyl]] |
| < 10 nM | C=CCCCCCCCC(=O)N[C@@H](CCCNC(=N)N[N+](=O)[O-])C(=O)N[C@@H](CC(C)C)B1O[C@@H]2C[C@@H]3C[C@@H](C3(C)C)[C@]2(C)O1 [D.3.68, Dec-9-enamide,N-[(1S)-1-[[[(1R)-1-[(3aS,4S,6S,7aR)-hexahydro-3a,5,5-trimethyl-4,6-methano-1,3,2-benzodioxaborol-2-yl]-3-methylbutyl]amino]carbonyl]-4-[[imino(nitroamino)methyl]amino]butyl]] |
| < 10 nM | CC(C)C[C@H](NC(=O)[C@H](CCCNC(=N)N[N+](=O)[O-])NC(=O)CC1CC2CCC1C2)B1O[C@@H]2C[C@@H]3C[C@@H](C3(C)C)[C@]2(C)O1 (stereo partly drawn) [D.3.89, 2-(Bicyclo[2.2.1]hept-2-yl)acetamide,N-[(1S)-1-[[[(1R)-1-[(3aS,4S,6S,7aR)-hexahydro-3a,5,5-trimethyl-4,6-methano-1,3,2-benzodioxaborol-2-yl]-3-methylbutyl]amino]carbonyl]-4-[[imino(nitroamino)methyl]amino]butyl]] |
| < 10 nM | COC(=O)CCCC(=O)N[C@@H](CCCNC(=N)N[N+](=O)[O-])C(=O)N[C@@H](CC(C)C)B(O)O [E.1.10, Boronic acid, [(1R)-1-[[(2S)-5-[[imino(nitroamino)methyl]amino]-2-[[4-(methoxycarbonyl)butanoyl]amino]-1-oxopentyl]amino]-3-methylbutyl]] |
| < 10 nM | CCCCN1CCC(CCCC(=O)N[C@@H](CCCNC(=N)N[N+](=O)[O-])C(=O)N[C@@H](CC(C)C)B(O)O)CC1 [E.1.14, Boronic acid, [(1R)-1-[[(2S)-5-[[imino(nitroamino)methyl]amino]-2-[(1-oxo-4-(1-butylpiperidin-4-yl)butyl)amino]-1-oxopentyl]amino]-3-methylbutyl]] |
